Measurements published in ChEMBL document CHEMBL1201862, “PubChem BioAssay data set” (2004).
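Protocol summary: plate cells (96-well), add compound at 5 concentrations, incubate 48 h, interpolate endpoints linearly. GI50 = concentration required for 50% inhibition of growth.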 Activity calls are given as the source filed them. No stated cut-off is given here; in the data, active = GI50 up to about 1.1 µM and inactive = higher.

Columns and labels:
Assay in all cases: inhibition of tumour cell growth, NCI panel, 48 h
T47D = system: T47D
HOP-92 = system: HOP-92
NCI-H460 = system: NCI-H460
NCI-H23 = system: NCI-H23
UACC-257 = system: UACC-257
CCRF-CEM = system: CCRF-CEM
SF-295 = system: SF-295
SF-268 = system: SF-268
HL-60 = system: HL-60
RXF 393 = system: RXF 393
PC-3 = system: PC-3
U-251 = system: U-251
IGROV-1 = system: IGROV-1
MDA-MB-231 = system: MDA-MB-231
786-0 = system: 786-0
HCT-15 = system: HCT-15
BT-549 = system: BT-549
DU-145 = system: DU-145
RPMI-8226 = system: RPMI-8226
SN12C = system: SN12C
HT-29 = system: HT-29
COLO 205 = system: COLO 205
HCC 2998 = system: HCC 2998
SK-OV-3 = system: SK-OV-3
MOLT-4 = system: MOLT-4
OVCAR-4 = system: OVCAR-4
A498 = system: A498
SF-539 = system: SF-539
ACHN = system: ACHN
LOX IMVI = system: LOX IMVI
SNB-75 = system: SNB-75
M14 = system: M14
OVCAR-3 = system: OVCAR-3
OVCAR-8 = system: OVCAR-8
KM12 = system: KM12
SK-MEL-5 = system: SK-MEL-5
CAKI-1 = system: CAKI-1
A549 = system: A549
K562 = system: K562
Malme-3M = system: Malme-3M
HCT-116 = system: HCT-116
NCI-H226 = system: NCI-H226
SR = system: SR
NCI-H522 = system: NCI-H522
Hs-578T = system: Hs-578T
MDA-N = system: MDA-N
SK-MEL-2 = system: SK-MEL-2
SNB-19 = system: SNB-19
SK-MEL-28 = system: SK-MEL-28
OVCAR-5 = system: OVCAR-5
NCI/ADR-RES = system: NCI/ADR-RES
MCF7 = system: MCF7
UO-31 = system: UO-31
TK-10 = system: TK-10
SW-620 = system: SW-620
EKVX = system: EKVX
HOP-62 = system: HOP-62
UACC-62 = system: UACC-62
MDA-MB-435 = system: MDA-MB-435

OCCO[P+]1(OCCO)n2c3ccc2C(c2ccccc2)=C2C=CC(=N2)C(c2ccccc2)=c2ccc(n21)=C(c1ccccc1)C1=NC(=C3c2ccccc2)C=C1
GI50 (T47D): 25.1 nM (active)
GI50 (HOP-92): 38.2 nM (active)
GI50 (NCI-H460): 37.8 nM (active)
GI50 (NCI-H23): 32.7 nM (active)
GI50 (UACC-257): 20.7 nM (active)
GI50 (CCRF-CEM): 15.8 nM (active)
GI50 (SF-295): 150 nM (active)
GI50 (SF-268): 26.3 nM (active)
GI50 (HL-60): 15.2 nM (active)
GI50 (RXF 393): 182 nM (active)
GI50 (PC-3): 29.9 nM (active)
GI50 (U-251): 15.2 nM (active)
GI50 (IGROV-1): 22 nM (active)
GI50 (MDA-MB-231): 42 nM (active)
GI50 (786-0): 76.4 nM (active)
GI50 (HCT-15): 1160 nM
GI50 (BT-549): 11.8 nM (active)
GI50 (DU-145): 31.6 nM (active)
GI50 (RPMI-8226): < 10 nM (active)
GI50 (SN12C): 25.3 nM (active)
GI50 (HT-29): 28.1 nM (active)
GI50 (COLO 205): 13 nM (active)
GI50 (HCC 2998): 19.5 nM (active)
GI50 (SK-OV-3): 56.1 nM (active)
GI50 (MOLT-4): 54.5 nM (active)
GI50 (OVCAR-4): 71.9 nM (active)
GI50 (A498): 349 nM (active)
GI50 (SF-539): 33.5 nM (active)
GI50 (ACHN): 251 nM (active)
GI50 (LOX IMVI): 22 nM (active)
GI50 (SNB-75): < 14.4 nM (active)
GI50 (M14): 163 nM (active)
GI50 (OVCAR-3): 21.8 nM (active)
GI50 (OVCAR-8): 76.7 nM (active)
GI50 (KM12): 24.7 nM (active)
GI50 (SK-MEL-5): 29.6 nM (active)
GI50 (CAKI-1): 783 nM (active)
GI50 (A549): 38.9 nM (active)
GI50 (K562): 10.9 nM (active)
GI50 (Malme-3M): 40.8 nM (active)
GI50 (HCT-116): 21.8 nM (active)
GI50 (NCI-H226): 57.9 nM (active)
GI50 (SR): < 10.6 nM (active)
GI50 (NCI-H522): 40.5 nM (active)
GI50 (Hs-578T): 23.7 nM (active)
GI50 (MDA-N): 34.4 nM (active)
GI50 (SK-MEL-2): 48.1 nM (active)
GI50 (SNB-19): 13.3 nM (active)
GI50 (SK-MEL-28): 40.8 nM (active)
GI50 (OVCAR-5): 102 nM (active)
GI50 (NCI/ADR-RES): 3280 nM (inactive)
GI50 (MCF7): 26.7 nM (active)
GI50 (UO-31): 1140 nM (inactive)
GI50 (TK-10): 119 nM (active)
GI50 (SW-620): 129 nM (active)
GI50 (EKVX): 104 nM (active)
GI50 (HOP-62): 70.8 nM (active)
GI50 (UACC-62): 30.3 nM (active)
GI50 (MDA-MB-435): 29.6 nM (active)
